Source: patent US20090239846A1, “Novel Compounds” (Glaxo Group Limited, priority 2005, published 2009)
Where a name gives a salt, the structure may show the parent alone. One block for each molecule: values may come before it.

Tests used:
[1] = tested on: influx of neutrophils to the lung in LPS-challenged rats; test: Rat LPS neutrophilia model; type: in vivo; conditions: LPS aerosol, lavage 4 hours later, in at least one of the range of conditions tested, significance p<0.05
Description: The effect of compounds on the influx of neutrophils to the lung in LPS-challenged rats is evaluated as follows. The test compound is suspended in one of the following solutions: 0.5% tween 80/PBS, 0.5% tween 80/saline, 10% EtOH/saline (with pH adjusted to 2.0, or 8.0 with HCl, or unadjusted), Saline (pH 2.0, 6.5 or 8.0, 0.5% Tragacanth, 1% DMSO/20% Encapsin/Saline, or acidified 5% Tragacanth. The suspension process may be aided by the use of a glass homogenizer. For intratracheal administration, the animals are anesthetized with inhaled isoflurane and placed in a supine position, the trachea is intubated with a steel gavage needle (1.5 inch, 22 gauge, small ball) or a Penn-Century Microsprayer Aerosolizer (model IA-LB) and 200 ul of dosing solution is delivered. The animals are visually monitored during the recovery process, which typically occurs within two minutes.
Rats treated with compound or vehicle (15 min-24 hours pretreatment) are exposed to an LPS aerosol (100 ug/ml) for 15 min. Four hours later the rats are euthanized with pentobarbital (100 mg/kg, i.p.) and the airways are lavaged with 5 washes of 5 ml of phosphate buffered saline. The harvested cells are stained (Diffquick) and counted to determine total and differential cell data. In a typical study, macrophages represent 40-70% of the total cells, and polymorphonuclear cells 30-60% of the total cells. Inhibition of neutrophil levels relative to no compound controls is calculated based on the differential counts.
The assay has varying conditions, such as concentration, pretreat time, form of the compound (crystalline, amorphous, salts, micronised), and a wet or dry application of the compound.
The data is obtained as % inhibition using a particular concentration and pretreat time.

Recombinant human p38α = molecular target: T1, Recombinant human p38α (Homo sapiens, UniProt Q16539); test: Fluorescence anisotropy kinase binding assay (standard or low volume); conditions: 12 nM p38α, 5 nM fluorescent ligand
T1 construct: GST; made in house
T1 sequence (Q16539 whole entry): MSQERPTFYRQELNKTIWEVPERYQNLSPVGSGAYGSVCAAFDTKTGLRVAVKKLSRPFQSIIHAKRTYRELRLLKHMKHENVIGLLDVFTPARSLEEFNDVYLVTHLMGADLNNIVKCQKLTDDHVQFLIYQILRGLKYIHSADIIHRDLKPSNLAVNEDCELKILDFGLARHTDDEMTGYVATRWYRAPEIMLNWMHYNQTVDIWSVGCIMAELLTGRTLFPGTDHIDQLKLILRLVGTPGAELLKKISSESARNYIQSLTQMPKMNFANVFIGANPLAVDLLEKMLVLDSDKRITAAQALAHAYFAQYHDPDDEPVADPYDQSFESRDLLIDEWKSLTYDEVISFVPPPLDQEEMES
Source text: (§1) The concentration of kinase enzyme should preferably be >2×Kf. The concentration of fluorescent ligand required will depend on the instrumentation used, and the fluorescent and physicochemical properties. The concentration used must be lower than the concentration of kinase enzyme, and preferably less than half the kinase enzyme concentration.
The fluorescent ligand is the following compound:
[drawing 329] • which is derived from 5-[2-(4-aminomethylphenyl)-5-pyridin-4-yl-1H-imidazol-4-yl]-2-chlorophenol and rhodamine green. Recombinant human p38α was expressed as a GST-tagged protein. To activate this protein, 3.5 μM unactivated p38α was incubated in 50 mM Tris-HCl pH 7.5, 0.1 mM EGTA, 0.1% 2-mercaptoethanol, 0.1 mM sodium vanadate, 10 mM MgAc, 0.1 mM ATP with 200 nM MBP-MKK6 DD at 30 degrees for 30 mins. Following activation p38α was re-purified and the activity assessed using a standard filter-binding assay. Protocol: All components are dissolved in buffer of composition 62.5 mM HEPES, pH 7.5, 1.25 mM CHAPS, 1 mM DTT, 12.5 mM MgCl2 with final concentrations of 12 nM p38α and 5 nM fluorescent ligand. 30 μl of this reaction mixture is added to wells containing 1 μl of various concentrations of test compound (0.28 nM-16.6 μM final) or DMSO vehicle (3% final) in NUNC 384 well black microtitre plate and equilibrated for 30-60 mins at room temperature. Fluorescence anisotropy is read in Molecular Devices Acquest (excitation 485 nm/emission 535 nm). Definitions: Ki=dissociation constant for inhibitor binding • Kf=dissociation constant for fluorescent ligand binding
as §1, with “2×Kf.” for “>2×Kf.”, “concentration. The fluorescent ligand is the following compound:” for “concentration.”
which is derived from 5-[2-(4-aminomethylphenyl)-5-pyridin-4-yl-1H-imidazol-4-yl]-2-chlorophenol and rhodamine green. Recombinant human p38α was expressed as a GST-tagged protein. To activate this protein, 3.5 μM unactivated p38α was incubated in 50 mM Tris-HCl pH 7.5, 0.1 mM EGTA, 0.1% 2-mercaptoethanol, 0.1 mM sodium vanadate, 10 mM MgAc, 0.1 mM ATP with 200 nM MBP-MKK6 DD at 30 degrees for 30 mins. Following activation p38α was re-purified and the activity assessed using a standard filter-binding assay. Protocol: All components are dissolved in buffer of composition 62.5 mM HEPES, pH 7.5, 1.25 mM CHAPS, 1 mM DTT, 12.5 mM MgCl2 with final concentrations of 12 nM p38α and 5 nM fluorescent ligand. […] of this reaction mixture is added to wells containing 0.1 μl of various concentrations of test compound (0.02 nM-25 μM final) or DMSO vehicle (1.7% final) in Greiner low volume 384 well black microtitre plate and equilibrated for 30-60 mins at room temperature. Fluorescence anisotropy is read in Molecular Devices Acquest (excitation 485 nm/emission 535 nm). Definitions: Ki dissociation constant for inhibitor binding • Kf=dissociation constant for fluorescent ligand binding It is noted that there are two assay formats shown above for the Fluorescence anisotropy kinase binding assay. The only difference between these two assays is the volume used and the plate type. […] The results described herein may have been performed in either assay format and are not differentiated as to which.

active in the assay (pIC50, p38α binding) (Recombinant human p38α): active
SMILES: CSc1nc(-c2cc(C(=O)N(C)C)ccc2C)c2c(n1)N(c1c(F)cccc1F)C(=O)NC2 [149(a), 3-[8-(2,6-difluorophenyl)-2-(methylthio)-7-oxo-5,6,7,8-tetrahydropyrimido[4,5-d]pyrimidin-4-yl]-N,N,4-trimethylbenzamide]

active in the assay (pIC50, p38α binding) (Recombinant human p38α): active
SMILES: CNCCNc1nc(-c2cc(C(=O)NC(C)C)ccc2C)c2c(n1)N(c1c(F)cccc1F)C(=O)NC2 [38(b), 3-(8-(2,6-difluorophenyl)-2-{[2-(methylamino)ethyl]amino}-7-oxo-5,6,7,8-tetrahydropyrimido[4,5-d]pyrimidin-4-yl)-4-methyl-N-(1-methylethyl)benzamide]

active in the assay (pIC50, p38α binding) (Recombinant human p38α): active
SMILES: CCN(CC)CCCC(C)Nc1nc(-c2cc(C(=O)NC(C)C)ccc2C)c2c(n1)N(c1c(F)cccc1F)C(=O)NC2 (centres unmarked) [Example 85, 3-[2-{[4-(diethylamino)-1-methylbutyl]amino}-8-(2,6-difluorophenyl)-7-oxo-5,6,7,8-tetrahydropyrimido[4,5-d]pyrimidin-4-yl]-4-methyl-N-(1-methylethyl)benzamide trifluoroacetate]

active in the assay (pIC50, p38α binding) (Recombinant human p38α): active
SMILES: CNC(=O)c1ccc(C)c(-c2nc(SC)nc3c2CNC(=O)N3c2c(F)cccc2F)c1 [163(a), 3-[8-(2,6-difluorophenyl)-2-(methylthio)-7-oxo-5,6,7,8-tetrahydropyrimido[4,5-d]pyrimidin-4-yl]-N,4-dimethylbenzamide]

active in the assay (pIC50, p38α binding) (Recombinant human p38α): active
SMILES: CNC1CCN(c2nc(-c3cc(C(=O)Nc4ccc(F)cc4)ccc3C)c3c(n2)N(c2c(F)cccc2F)C(=O)NC3)CC1 [33(b), 3-{8-(2,6-difluorophenyl)-2-[4-(methylamino)-1-piperidinyl]-7-oxo-5,6,7,8-tetrahydropyrimido[4,5-d]pyrimidin-4-yl}-N-(4-fluorophenyl)-4-methylbenzamide]

active in the assay (pIC50, p38α binding) (Recombinant human p38α): active
SMILES: CC(C)NC(=O)c1cccc(-c2nc(NCCN(C)C)nc3c2CNC(=O)N3c2c(F)cccc2F)c1 [88(c), 3-(8-(2,6-difluorophenyl)-2-{[2-(dimethylamino)ethyl]amino}-7-oxo-5,6,7,8-tetrahydropyrimido[4,5-d]pyrimidin-4-yl)-N-(1-methylethyl)benzamide]

Continued, molecule first:

SMILES: CCCNC(=O)c1ccc(C)c(-c2nc(N(C)CCCN(C)C)nc3c2CNC(=O)N3c2c(F)cccc2F)c1 [Example 53, 3-{8-(2,6-difluorophenyl)-2-[[3-(dimethylamino)propyl](methyl)amino]-7-oxo-5,6,7,8-tetrahydropyrimido[4,5-d]pyrimidin-4-yl}-4-methyl-N-propylbenzamide]
inhibition of neutrophilia [1]: statistically nonsignificant inhibition of neutrophilia

SMILES: CCN(CC)CCCNc1nc(-c2cc(C(=O)Nc3ccc(F)cc3)ccc2C)c2c(n1)N(c1c(F)cccc1F)C(=O)NC2 [Example 43, 3-[2-{[3-(diethylamino)propyl]amino}-8-(2,6-difluorophenyl)-7-oxo-5,6,7,8-tetrahydropyrimido[4,5-d]pyrimidin-4-yl]-N-(4-fluorophenyl)-4-methylbenzamide]
inhibition of neutrophilia [1]: inactive

SMILES: CNCCNc1nc(-c2cc(C(=O)Nc3ccc(F)cc3)ccc2C)c2c(n1)N(c1c(F)cccc1F)C(=O)NC2 [31(b), 3-(8-(2,6-difluorophenyl)-2-{[2-(methylamino)ethyl]amino}-7-oxo-5,6,7,8-tetrahydropyrimido[4,5-d]pyrimidin-4-yl)-N-(4-fluorophenyl)-4-methylbenzamide]
active in the assay (pIC50, p38α binding) (Recombinant human p38α): active

SMILES: CSc1nc(-c2cc(NC(=O)c3ccsc3)ccc2C)c2c(n1)N(c1c(F)cccc1F)C(=O)NC2 [Example 10(c), N-{3-[8-(2,6-difluorophenyl)-2-(methylthio)-7-oxo-5,6,7,8-tetrahydropyrimido[4,5-d]pyrimidin-4-yl]-4-methylphenyl}-3-thiophenecarboxamide]
active in the assay (pIC50, p38α binding) (Recombinant human p38α): active

SMILES: Cc1ccc(C(=O)Nc2ccc(F)cc2)cc1-c1nc(NCCNC(C)C)nc2c1CNC(=O)N2c1c(F)cccc1F [30(c), 3-[8-(2,6-difluorophenyl)-2-({2-[(1-methylethyl)amino]ethyl}amino)-7-oxo-5,6,7,8-tetrahydropyrimido[4,5-d]pyrimidin-4-yl]-N-(4-fluorophenyl)-4-methylbenzamide]
active in the assay (pIC50, p38α binding) (Recombinant human p38α): active

SMILES: CSc1nc(-c2cc(C(=O)O)ccc2C)c2c(n1)N(c1c(F)cccc1F)C(=O)NC2 [1(d), 3-[8-(2,6-Difluorophenyl)-2-(methylthio)-7-oxo-5,6,7,8-tetrahydropyrimido[4,5-d]pyrimidin-4-yl]-4-methylbenzoic acid]
active in the assay (pIC50, p38α binding) (Recombinant human p38α): active

SMILES: Cc1ccc(C(=O)NCc2ccccc2)cc1-c1nc(NC2CCN(C(=O)OC(C)(C)C)CC2)nc2c1CNC(=O)N2c1c(F)cccc1F [21(a), 1,1-Dimethylethyl 4-{[8-(2,6-difluorophenyl)-4-(2-methyl-5-{[(phenylmethyl)amino]carbonyl}phenyl)-7-oxo-5,6,7,8-tetrahydropyrimido[4,5-d]pyrimidin-2-yl]amino}-1-piperidinecarboxylate]
active in the assay (pIC50, p38α binding) (Recombinant human p38α): active

SMILES: Cc1ccc(C(=O)NCC2CC2)cc1-c1nc(N2CCC(N)CC2)nc2c1CNC(=O)N2c1c(F)cccc1F [2(b), 3-[2-(4-Amino-1-piperidinyl)-8-(2,6-difluorophenyl)-7-oxo-5,6,7,8-tetrahydropyrimido[4,5-d]pyrimidin-4-yl]-N-(cyclopropylmethyl)-4-methylbenzamide]
active in the assay (pIC50, p38α binding) (Recombinant human p38α): active

SMILES: Cc1ccc(C(=O)NCCc2ccc(F)cc2)cc1-c1nc(N2CCC(N)CC2)nc2c1CNC(=O)N2c1c(F)cccc1F [3(b), 3-[2-(4-Amino-1-piperidinyl)-8-(2,6-difluorophenyl)-7-oxo-5,6,7,8-tetrahydropyrimido[4,5-d]pyrimidin-4-yl]-N-[2-(4-fluorophenyl)ethyl]-4-methylbenzamide]
active in the assay (pIC50, p38α binding) (Recombinant human p38α): active

SMILES: Cc1ccc(NC(=O)c2ccsc2)cc1-c1nc(NC2CC(C)(C)NC(C)(C)C2)nc2c1CNC(=O)N2c1c(F)cccc1F [7(d), N-(3-{8-(2,6-Difluorophenyl)-7-oxo-2-[(2,2,6,6-tetramethyl-4-piperidinyl)amino]-5,6,7,8-tetrahydropyrimido[4,5-d]pyrimidin-4-yl}-4-methylphenyl)-3-thiophenecarboxamide]
active in the assay (pIC50, p38α binding) (Recombinant human p38α): active

SMILES: CSc1nc(-c2cc(N)ccc2C)c2c(n1)N(c1c(F)cccc1F)C(=O)NC2 [10(b), 5-(5-Amino-2-methylphenyl)-1-(2,6-difluorophenyl)-7-(methylthio)-3,4-dihydropyrimido[4,5-d]pyrimidin-2(1H)-one]
active in the assay (pIC50, p38α binding) (Recombinant human p38α): active
